Results on three compounds are retold here after publication PMC7101335, “Aryl-alkyl-lysines: Novel agents for treatment of C. difficile infection” (Scientific Reports, 2020).

In brackets after ≈: the same amount, converted by molar mass. Where two headings read alike, the source gives them in different places.

Type in all cases: cell-based
In series [1] the test system is Clostridium difficile. Put plainly: Broth microdilution MIC against Clostridium difficile strains. Conditions: Clostridioides difficile. On the procedure: The broth microdilution assay was utilized following the Clinical and Laboratory Standards Institute (CLSI) guidelines with slight modifications. Briefly, C. difficile strains were grown on anaerobic blood agar plates (Becton Dickinson, BD) and suspended in brain heart infusion supplemented broth (Brain heart infusion medium, BD, supplemented with yeast extract, L-cysteine, Vitamin K1 and Hemin, Sigma) to achieve a bacterial concentration of ~10^5 CFU/ml. The bacterial suspension was seeded in 96-well plates containing drugs/compounds, in duplicate, at the required concentration. Plates were then incubated at 37 °C anaerobically for 48 hours. MICs reported are the lowest concentration of each agent that inhibited the visual growth of bacteria.

Series [2] has as its system E. faecalis. The experiment in a line: Broth microdilution MIC against E. faecalis strains. Conditions: Enterococcus faecalis, read-out: Minimum inhibitory concentration.
Series [3] has as its system E. faecium. The experiment in a line: Broth microdilution MIC against E. faecium strains. Conditions: Enterococcus faecium, read-out: Minimum inhibitory concentration.
Series [4] deals with human ileocecal colorectal adenocarcinoma cell line (HRT-18). The experiment in a line: Cytotoxicity, MTS assay, HRT-18 cells. To be noted: 32 µg mL^−1, 2 hours. Here is the method:
Briefly, ~2 × 10^4 cells suspended in 100 µL of RPMI-1640 supplemented with 10% horse serum were seeded in a 96-well plate and incubated at 37 °C with 5% CO2. The cells were cultured for 24 hours until reaching ~90% confluency. The cells were further incubated with the aforementioned concentrations of the compounds for 2 hours. Afterwards, culture media were discarded and the cells in each well were washed with PBS and 100 µL of cell culture media were added prior to addition of the assay reagent MTS 3-(4,5-dimethylthiazol-2-yl)-5-(3-carboxymethoxyphenyl)-2-(4-sulfophenyl)-2H-tetrazolium) (Promega). The plates were incubated for 4 hours at 37 °C in a humidified 5% CO2 atmosphere. The absorbance was recorded at 490 nm and the corrected absorbance readings (actual absorbance readings for each treatment subtracted from background absorbance) were taken using a kinetic ELISA microplate reader (SpectraMax i3x, Molecular Devices, Sunnyvale, CA, USA). The quantity of viable cells after treatment with each compound was expressed as a percentage of the control, DMSO. Asterisk (*) denotes a significant difference from the DMSO-treated cells using 2-way analysis of variance (ANOVA) followed by Dunnett’s pairwise comparison.

Series [5] concerns vancomycin-resistant and vancomycin-susceptible strains of Enterococcus. Put plainly: Broth microdilution MIC against Enterococcus strains (E. faecalis and E. faecium, summary in text). To be noted: all E. faecalis and E. faecium strains tested, vancomycin-resistant and -sensitive.
[6] abbreviates: C. difficile Isolate 1 (NR-13427), read-out: Minimum inhibitory concentration.
Where [7] appears, read: C. difficile Isolate 2 (NR-13428), read-out: Minimum inhibitory concentration.
Where [8] appears, read: C. difficile Isolate 4 (NR-13430), read-out: Minimum inhibitory concentration.
Where [9] appears, read: C. difficile Isolate 5 (NR-13431), read-out: Minimum inhibitory concentration.
Where [10] appears, read: C. difficile Isolate 6 (NR-13432), read-out: Minimum inhibitory concentration.
Where [11] appears, read: C. difficile Isolate 9 (NR-13435), read-out: Minimum inhibitory concentration.
The mark [12] stands for this setting: C. difficile Isolate 10 (NR-13436), read-out: Minimum inhibitory concentration.
[13] abbreviates: C. difficile P2 (NR-32883), read-out: Minimum inhibitory concentration.
Where [14] appears, read: C. difficile P4 (NR-32889), read-out: Minimum inhibitory concentration.
The mark [15] stands for this setting: C. difficile P8 (NR-32888), read-out: Minimum inhibitory concentration.
Where [16] appears, read: C. difficile P13 (NR-32891), read-out: Minimum inhibitory concentration.
Where [17] appears, read: C. difficile P15 (NR-32892), read-out: Minimum inhibitory concentration.
The mark [18] stands for this setting: C. difficile P20 (NR-32896), read-out: Minimum inhibitory concentration.
Setting [19] is: C. difficile P21 (NR-32897), read-out: Minimum inhibitory concentration.
[20] abbreviates: C. difficile P29 (NR-32903), read-out: Minimum inhibitory concentration.
The mark [21] stands for this setting: across all tested strains of C. difficile.
The mark [22] stands for this setting: E. faecalis SF28073 (vancomycin-resistant).
Where [23] appears, read: E. faecium E417 (vancomycin-resistant).

Turning to `CN[C@H](CC(C)C)C(=O)N[C@H]1C(=O)N[C@@H](CC(N)=O)C(=O)N[C@H]2C(=O)N[C@H]3C(=O)N[C@H](C(=O)N[C@H](C(=O)O)c4cc(O)cc(O)c4-c4cc3ccc4O)[C@H](O)c3ccc(c(Cl)c3)Oc3cc2cc(c3O[C@@H]2O[C@H](CO)[C@@H](O)[C@H](O)[C@H]2O[C@H]2C[C@](C)(N)[C@H](O)[C@H](C)O2)Oc2ccc(cc2Cl)[C@H]1O` [Vancomycin, reference compound], the MIC worked out at 0.5 µg/mL (≈ 0.345 µM) in series [1] (C. difficile strains P8, P13 and Isolate 10); 1 µg/mL (≈ 0.69 µM) in series [1] (read-out: Minimum inhibitory concentration, C. difficile Isolate 1 (NR-13427)); 1 µg/mL (≈ 0.69 µM) in series [1] (read-out: Minimum inhibitory concentration, C. difficile Isolate 2 (NR-13428)); 0.5 µg/mL (≈ 0.345 µM) in series [1] (read-out: Minimum inhibitory concentration, C. difficile Isolate 4 (NR-13430)); 0.5 µg/mL (≈ 0.345 µM) in series [1] (read-out: Minimum inhibitory concentration, C. difficile Isolate 5 (NR-13431)); 0.5 µg/mL (≈ 0.345 µM) in series [1] (read-out: Minimum inhibitory concentration, C. difficile Isolate 6 (NR-13432)). In addition, the MIC in series [1] (read-out: Minimum inhibitory concentration, C. difficile Isolate 9 (NR-13435)) stood at 0.5 µg/mL (≈ 0.345 µM); in series [1] (read-out: Minimum inhibitory concentration, C. difficile Isolate 10 (NR-13436)), 0.5 µg/mL (≈ 0.345 µM); in series [1] (read-out: Minimum inhibitory concentration, C. difficile P2 (NR-32883)), 0.5 µg/mL (≈ 0.345 µM); in series [1] (read-out: Minimum inhibitory concentration, C. difficile P4 (NR-32889)), 2 µg/mL (≈ 1.38 µM); in series [1] (read-out: Minimum inhibitory concentration, C. difficile P8 (NR-32888)), 0.5 µg/mL (≈ 0.345 µM); in series [1] (read-out: Minimum inhibitory concentration, C. difficile P13 (NR-32891)), 0.5 µg/mL (≈ 0.345 µM). Moreover, the MIC was 0.5 µg/mL (≈ 0.345 µM) in series [1] (read-out: Minimum inhibitory concentration, C. difficile P15 (NR-32892)); 1 µg/mL (≈ 0.69 µM) in series [1] (read-out: Minimum inhibitory concentration, C. difficile P20 (NR-32896)); 0.5 µg/mL (≈ 0.345 µM) in series [1] (read-out: Minimum inhibitory concentration, C. difficile P21 (NR-32897)); 0.5 µg/mL (≈ 0.345 µM) in series [1] (read-out: Minimum inhibitory concentration, C. difficile P29 (NR-32903)); 0.5 to 1 µg/mL (≈ 0.345 to 0.69 µM) in series [1] (the rest of the C. difficile strains); 1 µg/mL (≈ 0.69 µM) in series [2]. In addition, the MIC in series [3] was greater than 128 µg/mL.

Consider `CCCCCCN(Cc1cccc2ccccc12)C(=O)[C@@H](N)CCCCN` [NCK-6], for which the MIC in series [1] (setting [6]) is 64 µg/mL (≈ 173 µM); in series [1] (setting [7]), 64 µg/mL (≈ 173 µM); in series [1] (setting [8]), 64 µg/mL (≈ 173 µM); in series [1] (setting [9]), 32 µg/mL (≈ 86.6 µM); in series [1] (setting [10]), 64 µg/mL (≈ 173 µM); in series [1] (setting [11]) it was 32 µg/mL (≈ 86.6 µM). Besides, the MIC in series [1] (setting [12]), in series [1] (setting [13]), in series [1] (setting [14]), in series [1] (setting [15]), in series [1] (setting [16]) and in series [1] (setting [17]) was 64 µg/mL (≈ 173 µM) in each case. Further, the MIC in series [1] (setting [18]) is 64 µg/mL (≈ 173 µM); in series [1] (setting [19]), 32 µg/mL (≈ 86.6 µM); in series [1] (setting [20]) it was 32 µg/mL (≈ 86.6 µM); in series [1] (setting [21]), 32 µg/mL (≈ 86.6 µM); in series [2] (E. faecalis B3196) it was 128 µg/mL (≈ 346 µM); in series [2] (E. faecalis B3286) it was 128 µg/mL (≈ 346 µM). Moreover, the MIC amounted to 128 µg/mL (≈ 346 µM) in series [2] (E. faecalis B3336); 128 µg/mL (≈ 346 µM) in series [2] (E. faecalis SF24397); 128 µg/mL (≈ 346 µM) in series [2] (setting [22]); 64 µg/mL (≈ 173 µM) in series [3] (setting [23]); 128 µg/mL (≈ 346 µM) in series [3] (E. faecium E1071); 128 µg/mL (≈ 346 µM) in series [3] (E. faecium UAA714). The MIC in series [5] lay in the range of 64 to 128 µg/mL (≈ 173 to 346 µM). The “toxicity to HRT-18 cells” value in series [4] is listed as “survived”.

`CCCCCCCCCCCCN(Cc1cccc2ccccc12)C(=O)[C@@H](N)CCCCN` [NCK-12]: the MIC in series [1] (setting [6]) is 4 µg/mL (≈ 8.82 µM); in series [1] (setting [7]), 2 µg/mL (≈ 4.41 µM); in series [1] (setting [8]), 2 µg/mL (≈ 4.41 µM); in series [1] (setting [9]) it was 1 µg/mL (≈ 2.2 µM); in series [1] (setting [10]), 2 µg/mL (≈ 4.41 µM); in series [1] (setting [11]) it was 2 µg/mL (≈ 4.41 µM). The MIC worked out at 2 µg/mL (≈ 4.41 µM) in series [1] (setting [12]); 1 µg/mL (≈ 2.2 µM) in series [1] (setting [13]); 4 µg/mL (≈ 8.82 µM) in series [1] (setting [14]); 4 µg/mL (≈ 8.82 µM) in series [1] (setting [15]); 2 µg/mL (≈ 4.41 µM) in series [1] (setting [16]); 2 µg/mL (≈ 4.41 µM) in series [1] (setting [17]). The MIC in series [1] (setting [18]) is 2 µg/mL (≈ 4.41 µM); in series [1] (setting [19]) it was 2 µg/mL (≈ 4.41 µM); in series [1] (setting [20]) it was 2 µg/mL (≈ 4.41 µM); in series [1] (setting [21]), 1 to 4 µg/mL (≈ 2.2 to 8.82 µM); in series [2] (E. faecalis B3196) it was 4 µg/mL (≈ 8.82 µM); in series [2] (E. faecalis B3286) it was 8 µg/mL (≈ 17.6 µM). For the same compound, the MIC in series [2] (E. faecalis B3336) was found to be 8 µg/mL (≈ 17.6 µM); in series [2] (E. faecalis SF24397) it was 8 µg/mL (≈ 17.6 µM); in series [2] (setting [22]), 4 µg/mL (≈ 8.82 µM); in series [3] (setting [23]), 4 µg/mL (≈ 8.82 µM); in series [3] (E. faecium E1071), 8 µg/mL (≈ 17.6 µM); in series [3] (E. faecium UAA714), 8 µg/mL (≈ 17.6 µM). Besides, the MIC in series [5] fell in the range of 4 to 8 µg/mL (≈ 8.82 to 17.6 µM). For the same compound, in series [4], the “toxicity to HRT-18 cells” value is given as “survived”.
